Reference: publication PMC11033320, “Activation of p53 signaling and regression of breast and prostate carcinoma cells by spirooxindole-benzimidazole small molecules” (Frontiers in Pharmacology, 2024)

Key:
Ki-67 = test: Immunohistochemical detection of Ki-67 in MDA-MB 231 cells; format: cell-based, human; details: MDA-MB 231, 72 h; untreated 82.425%
Procedure: (§1) After trypsinization, the untreated and treated MDA-MB231 cells were centrifuged and washed with PBS buffer and then 10% formalin in PBS was added to cell pellets. The fixed cell specimens were dehydrated in ascending grades of alcohol and immersed in xylene for one hour (three times) followed by impregnation in melted paraffin to from solid paraffin blocks. Then a rotator microtome was used to cut each block into 3-5 μm thick sections that were transferred into positively charge slides. Slides were dried at 60-70°C for 1-2 h then dewaxed by immersion in xylene 3 times and rehydrated in descending grading ethanol. After that slides were incubated in 3% H2O2 for 10 min, washed in PBS buffer twice for 3 min and put in 10 mM citrate buffer […] followed by heating for 10-20 min. After cooling and washing in PBS, slides were separately soaked overnight in primary antibodies (anti-Ki-67 and anti-p53). Slides were washed in PBS, covered with biotinylated goat anti-polyvalent secondary antibody for 10 min and then streptavidin peroxidase was added. After 10 min, substrate of secondary antibody (3,3'-diaminobenzidine) was added followed by washing in PBS and placing in hematoxylin bath for 1-4 min then washing in PBS (1 min) and water (3 min). Percentage of immunostained cells was evaluated by imaging analysis cellSens software of phase contrast microscope (Olympus, Japan).

p53 = test: Immunohistochemical detection of p53 in MDA-MB 231 cells; format: cell-based, human; details: MDA-MB 231, 72 h, compared to untreated cells
Procedure: as §1

[1] = test system: human p53 transcription factor; test: p53 transcription factor activity assay in MDA-MB 231 cells; format: cell-based; details: treated MDA-MB 231 cells relative to the untreated cells
Procedure: The relative fold activation of p53 in the treated MDA-MB 231 cells were quantified using human p53 transcription factor activity assay kit (RayBio, USA). Briefly, 100 µl of lysates of the untreated and treated MDA-MB 231 cells were added to p53 probe-coated 96 wells and incubated for 2 h (these oligonucleotides capture the active p53 in cell lysate). After washing for discarding unbound p53, primary antibody was added to bound p53-DNA complex, incubated for 1 h. Each well was washed then peroxidase-conjugated secondary antibody was added and incubated for 1 h. After washing and incubating with substrate for 30 min, the absorbance was measured at 450 nm.

p21 = test: Real time PCR p21 gene expression in MDA-MB 231 cells; details: treated MDA-MB 231 cells compared to untreated cells
cyclin D = test: Real time PCR cyclin D gene expression in MDA-MB 231 cells; details: treated MDA-MB 231 cells compared to untreated cells

Row | Structure (SMILES) | Ki-67 level (positive immunostaining cells) (Ki-67) | increase of protein level of p53 (p53) | fold activation of p53 transcription factor [1] | upregulation of p21 expression (p21) | expression level of cyclin D (cyclin D)
1 | Cc1ccc([C@@H]2C3CSCN3[C@]3(C(=O)Nc4ccccc43)[C@H]2C(=O)c2nc3ccccc3[nH]2)cc1 (mixture of isomers) [Compound 6d, (3S,6′R)-6'-(1H-Benzo [d]imidazole-2-carbonyl)-7'-(p-tolyl)-3′,6′,7′,7a′-tetrahydro-1′H-spiro [indoline-3.5′-pyrrolo [1,2-c]thiazol]-2-one] | 3.03% | 54.7% | 6.287 ± 0.254 fold | greater than three times | downregulating
2 | O=C(c1nc2ccccc2[nH]1)[C@H]1[C@H](c2ccccc2)C2CSCN2[C@]12C(=O)Nc1ccccc12 (mixture of isomers) [Compound 6a, (3S,6′R)-6'-(1H-benzo [d]imidazole-2-carbonyl)-7′-phenyl-3′,6′,7′,7a′-tetrahydro-1′H-spiro [indoline-3.5′-pyrrolo [1,2-c]thiazol]-2-one] | 1.18% | 60.2% | 5.983 ± 0.142 fold | – | downregulating
